Molecules are shown by their SMILES.

In this assay the target is human recombinant LRRK2 protein (Homo sapiens (Human), UniProt Q5S007). In words: LRRK2 Kinase Activity Assay (ADP-Glo). Type of assay: biochemical. Conditions: LRRK2 wt; LRRKtide peptide and ATP substrates; 1h-incubation at 37° C. The procedure, abridged: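 Recombinant human LRRK2 acted on LRRKtide peptide and ATP for 1 h at 37 °C. ADP formed was detected by ADP-Glo luminescence (ATP depletion, then ADP-to-ATP conversion and luciferase). IC50s came from curve fits over 10 concentrations (N=2).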
(In ADP-Glo the light output rises with the ADP produced.)

Sequence of human recombinant LRRK2 protein (Q5S007 whole entry): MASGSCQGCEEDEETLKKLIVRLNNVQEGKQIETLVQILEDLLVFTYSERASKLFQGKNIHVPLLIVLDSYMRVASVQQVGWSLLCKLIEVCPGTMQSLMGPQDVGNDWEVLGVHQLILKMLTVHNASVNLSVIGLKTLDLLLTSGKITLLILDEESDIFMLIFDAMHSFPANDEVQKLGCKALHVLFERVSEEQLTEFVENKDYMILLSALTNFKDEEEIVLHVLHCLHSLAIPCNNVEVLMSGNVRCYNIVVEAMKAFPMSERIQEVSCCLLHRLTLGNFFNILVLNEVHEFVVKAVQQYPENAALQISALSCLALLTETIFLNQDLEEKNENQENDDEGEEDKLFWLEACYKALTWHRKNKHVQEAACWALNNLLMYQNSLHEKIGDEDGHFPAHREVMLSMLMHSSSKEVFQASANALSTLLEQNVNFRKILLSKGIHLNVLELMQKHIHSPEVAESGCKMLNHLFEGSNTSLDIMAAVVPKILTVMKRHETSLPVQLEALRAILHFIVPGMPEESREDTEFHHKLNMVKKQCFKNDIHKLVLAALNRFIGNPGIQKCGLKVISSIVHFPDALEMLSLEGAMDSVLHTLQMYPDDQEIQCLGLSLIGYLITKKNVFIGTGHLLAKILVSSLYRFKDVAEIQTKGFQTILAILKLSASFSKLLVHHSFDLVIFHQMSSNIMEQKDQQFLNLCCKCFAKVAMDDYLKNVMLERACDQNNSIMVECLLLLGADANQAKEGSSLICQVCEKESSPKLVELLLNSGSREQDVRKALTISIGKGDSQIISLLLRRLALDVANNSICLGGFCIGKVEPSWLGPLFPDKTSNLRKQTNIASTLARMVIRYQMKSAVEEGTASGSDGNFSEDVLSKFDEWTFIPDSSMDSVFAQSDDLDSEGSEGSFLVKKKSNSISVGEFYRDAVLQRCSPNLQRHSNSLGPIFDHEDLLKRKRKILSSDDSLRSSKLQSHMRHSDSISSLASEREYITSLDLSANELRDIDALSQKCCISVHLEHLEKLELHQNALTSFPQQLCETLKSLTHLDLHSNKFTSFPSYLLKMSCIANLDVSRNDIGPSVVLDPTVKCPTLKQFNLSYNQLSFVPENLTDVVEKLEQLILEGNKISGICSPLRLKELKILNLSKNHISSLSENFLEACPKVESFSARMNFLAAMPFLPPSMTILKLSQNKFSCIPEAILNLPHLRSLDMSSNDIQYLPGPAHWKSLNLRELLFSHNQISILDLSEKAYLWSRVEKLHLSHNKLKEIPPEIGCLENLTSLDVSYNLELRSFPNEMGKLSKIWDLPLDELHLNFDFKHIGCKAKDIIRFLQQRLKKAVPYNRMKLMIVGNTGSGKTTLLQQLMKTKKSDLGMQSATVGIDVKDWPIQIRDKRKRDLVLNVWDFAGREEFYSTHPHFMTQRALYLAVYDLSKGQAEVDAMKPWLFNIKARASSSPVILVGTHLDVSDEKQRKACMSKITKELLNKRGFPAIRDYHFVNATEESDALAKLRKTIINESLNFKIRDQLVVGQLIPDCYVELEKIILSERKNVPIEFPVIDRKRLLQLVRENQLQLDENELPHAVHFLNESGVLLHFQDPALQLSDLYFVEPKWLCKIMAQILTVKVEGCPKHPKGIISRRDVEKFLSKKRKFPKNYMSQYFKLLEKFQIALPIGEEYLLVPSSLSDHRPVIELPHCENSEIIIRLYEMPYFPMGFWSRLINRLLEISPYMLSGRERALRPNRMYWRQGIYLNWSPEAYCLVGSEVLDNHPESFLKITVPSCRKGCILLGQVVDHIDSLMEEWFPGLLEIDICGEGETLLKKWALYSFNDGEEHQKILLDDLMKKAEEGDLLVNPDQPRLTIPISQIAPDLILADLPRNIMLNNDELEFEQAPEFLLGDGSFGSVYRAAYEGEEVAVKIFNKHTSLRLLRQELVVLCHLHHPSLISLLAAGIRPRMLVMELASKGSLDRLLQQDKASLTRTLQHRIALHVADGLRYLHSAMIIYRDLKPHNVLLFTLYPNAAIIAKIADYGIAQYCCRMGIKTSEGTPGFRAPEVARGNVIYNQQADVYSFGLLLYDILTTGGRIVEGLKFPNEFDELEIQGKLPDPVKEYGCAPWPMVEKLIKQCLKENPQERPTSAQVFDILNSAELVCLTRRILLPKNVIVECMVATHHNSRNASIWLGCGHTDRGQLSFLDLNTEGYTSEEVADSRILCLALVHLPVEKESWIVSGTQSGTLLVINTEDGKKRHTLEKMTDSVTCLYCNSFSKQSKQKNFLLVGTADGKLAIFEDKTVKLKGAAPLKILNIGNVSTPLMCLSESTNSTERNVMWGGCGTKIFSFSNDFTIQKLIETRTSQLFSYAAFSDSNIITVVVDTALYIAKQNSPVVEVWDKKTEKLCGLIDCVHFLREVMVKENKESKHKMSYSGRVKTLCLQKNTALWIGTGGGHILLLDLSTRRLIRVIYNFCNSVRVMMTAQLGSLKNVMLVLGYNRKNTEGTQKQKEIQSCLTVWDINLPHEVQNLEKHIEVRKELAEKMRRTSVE

In general, IC50 refers to the midpoint of a concentration-inhibition curve. Take `CCC1OC(=O)NCCCOc2ccc3[nH]nc(c3c2)-c2cccc1c2` (single isomer, unassigned) [Example 115, (7R)- or (7S)-7-ethyl-8,14-dioxa-10,19,20-triazatetracyclo[13.5.2.1^2,6.0^18,21]tricosa-1(20),2,4,6(23),15,17,21-heptaen-9-one]: the IC50 was in the range of 100 to 1000 nM.

For `O=C1NCCCOc2ccc3[nH]nc(c3c2)-c2cc(cc(CN3CCCCC3)c2)CO1` [Example 43], the IC50 was in the range of 10 to 100 nM.

For the molecule `C[C@@H]1CCNC(=O)OCc2cccc(c2F)-c2n[nH]c3ccc(cc23)O1` [Example 120, (13R)-23-fluoro-13-methyl-8,14-dioxa-10,19,20-triazatetracyclo[13.5.2.1^2,6.0^18,21]tricosa-1(20),2,4,6(23),15,17,21-heptaen-9-one], the IC50 lay within 100 to 1000 nM.

On to `O=C1NCCCOc2ccc3[nH]nc(c3c2)-c2cccc(n2)CO1` [Example 4, 8,14-dioxa-10,19,20,23-tetraazatetracyclo[13.5.2.1^2,6.0^18,21]tricosa-1(20),2,4, 6(23),15,17,21-heptaen-9-one], for which the IC50 is under 10 nM.

Take `C[C@@H]1CCNC(=O)OCc2cncc(c2)-c2n[nH]c3cc(F)c(cc23)O1` [Example 124, (13R)-16-fluoro-13-methyl-8,14-dioxa-4,10,19,20-tetraazatetracyclo[13.5.2.1^2,6.0^18,21]tricosa-1(20),2,4,6(23),15,17,21-heptaen-9-one]: the IC50 was under 10 nM.

For the molecule `C[C@@H]1CCNC(=O)OCCn2cc(cn2)-c2n[nH]c3ccc(cc23)O1` [Example 97, (13R)-13-methyl-8,14-dioxa-4,5,10,19,20-pentaazatetracyclo[13.5.2.1^2,5.0^18,21]tricosa-1(20),2(23),3,15,17,21-hexaen-9-one], the IC50 is under 10 nM.

Consider `O=C1NCC(F)(F)COc2ccc3[nH]nc(c3c2)-c2cnn(n2)CCO1` [Example 167, 12,12-difluoro-8,14-dioxa-4,5,10,19,20,23-hexaazatetracyclo[13.5.2.1^2,5.0^18,21]tricosa-1(20),2(23),3,15(22),16,18(21)-hexaen-9-one], for which the IC50 was under 10 nM.

Consider `CCC1OC(=O)NCCCOc2ccc3[nH]nc(c3c2)-c2cccc1c2` (single isomer, unassigned) [Example 116, (7R)- or (7S)-7-ethyl-8,14-dioxa-10,19,20-triazatetracyclo[13.5.2.1^2,6.0^18,21]tricosa-1(20),2,4,6(23),15,17,21-heptaen-9-one], for which the IC50 is under 10 nM.

In the case of `CCC1CC2=NN1CCOC(=O)NCCCOc1ccc3[nH]nc2c3c1` (stereo not shown) [Example 119, 4-ethyl-8,14-dioxa-5,10,19,20,23-pentaazatetracyclo[13.5.2.1^2,5.0^18,21]tricosa-1(20),2(23),15,17,21-pentaen-9-one], the half-maximal inhibitory concentration (IC50) lay within 10 to 100 nM.

Take `O=C1NCCCOc2ccc3[nH]nc(c3c2)-c2cc(cc(N3CCC(F)(F)C3)c2)CO1` [Example 21, 4-(3,3-difluoropyrrolidin-1-yl)-8,14-dioxa-10,19,20-triazatetracyclo[13.5.2.1^2,6.0^18,21]tricosa-1(20),2,4,6(23),15,17,21-heptaen-9-one]: the IC50 was under 10 nM.

Take `C[C@H]1CCNC(=O)OCc2cncc(n2)-c2n[nH]c3ccc(cc23)O1` [Example 156, (13S)-13-methyl-8,14-dioxa-4,10,19,20,23-pentaazatetracyclo[13.5.2. 1^2,6.0^18,21]tricosa-1(20),2(23),3,5,15(22),16,18(21)-heptaen-9-one]: the half-inhibitory concentration (IC50) was under 10 nM.

On to `O=C1NCCCOc2ccc3[nH]nc(c3c2)-c2cc(cc(N3CCN(C4COC4)CC3)c2)CO1` [Example 15, 4-[4-(oxetan-3-yl)piperazin-1-yl]-8,14-dioxa-10,19,20-triazatetracyclo[13.5.2.1^2,6.0^18,21]tricosa-1(20),2,4,6(23),15,17,21-heptaen-9-one], for which the IC50 was under 10 nM.

For `CN(c1cc2cc(c1)-c1n[nH]c3ccc(cc13)OCCCNC(=O)OC2)C1COC1` [Example 52, 4-[methyl(oxetan-3-yl)amino]-8,14-dioxa-10,19,20-triazatetracyclo[13.5.2.1^2,6.0^18,21]tricosa-1(20),2,4,6(23),15,17,21-heptaen-9-one], the half-maximal inhibitory concentration (IC50) is under 10 nM.

`CC1Cn2cc(cn2)-c2n[nH]c3ccc(cc23)O[C@H](C)CCNC(=O)O1` (stereo partly drawn) [Example 113, (13R)-7,13-dimethyl-8,14-dioxa-4,5,10,19,20-pentaazatetracyclo[13.5.2.1^2,5.0^18,21]tricosa-1(20),2(23),3,15(22),16,18(21)-hexaen-9-one]: the concentration for half-maximal inhibition (IC50) was under 10 nM.

Turning to `O=C1NCCCOc2ccc3[nH]nc(c3c2)-c2cc(cc(C3CC3)c2)CO1` [Example 48, 4-cyclopropyl-8,14-dioxa-10,19,20-triazatetracyclo[13.5.2.1^2,6.0^18,21]tricosa-1(20),2,4,6(23),15,17,21-heptaen-9-one], the IC50 is under 10 nM.

For `C[C@@H]1CCNC(=O)O[C@H](C)c2cncc(n2)-c2n[nH]c3ccc(cc23)O1` [Example 155, (7R,13R)-7,13-dimethyl-8,14-dioxa-4,10,19,20,23-pentaazatetracyclo[13.5. 2.1^2,6.0^18,21]tricosa-1(20),2(23),3,5,15(22),16,18(21)-heptaen-9-one], the 50% inhibitory concentration (IC50) is under 10 nM.

Turning to `N#CCc1cc2cc(c1)-c1n[nH]c3ccc(cc13)OCCCNC(=O)OC2` [Example 77, 2-{9-oxo-8,14-dioxa-10,19,20-triazatetracyclo[13.5.2.1^2,6.0^18,21]tricosa-1(20),2(23),3,5,15(22),16,18(21)-heptaen-4-yl}acetonitrile], the IC50 is under 10 nM.

With `CC1CCOc2ccc3[nH]nc(c3c2)-c2cccc(c2)COC(=O)N1` (stereo not shown) [Example 72, 11-methyl-8,14-dioxa-10,19,20-triazatetracyclo[13.5.2.1^2,6.0^18,21]tricosa-1(20),2,4,6(23),15,17,21-heptaen-9-one], the IC50 is under 10 nM.

Turning to `COCCc1cc2cc(c1)-c1n[nH]c3ccc(cc13)OCCCNC(=O)OC2` [Example 67, 4-(2-methoxyethyl)-8,14-dioxa-10,19,20-triazatetracyclo[13.5.2.1^2,6.0^18,21]tricosa-1(20),2(23),3,5,15(22),16,18(21)-heptaen-9-one], the IC50 was under 10 nM.

On to `O=C1NCCCOc2ccc3[nH]nc(c3c2)-c2cc(cc(N3CCNCC3)c2)CO1` [Example 81, 4-(piperazin-1-yl)-8,14-dioxa-10,19,20-triazatetracyclo[13.5.2.1^2,6.0^18,21]tricosa-1(20),2(23),3,5,15(22),16,18(21)-heptaen-9-one], for which the IC50 was under 10 nM.

With `COC1CN(c2cc3cc(c2)-c2n[nH]c4ccc(cc24)OCCCNC(=O)OC3)C1` [Example 32, 4-(3-methoxyazetidin-1-yl)-8,14-dioxa-10,19,20-triazatetracyclo[13.5.2.1^2,6.0^18,21]tricosa-1(20),2,4,6(23),15,17,21-heptaen-9-one], the IC50 was under 10 nM.

On to `C[C@@H]1CCNC(=O)OCCC2=NC=C(S2)c2n[nH]c3ccc(cc23)O1` [Example 160, (13R)-13-methyl-8,14-dioxa-23-thia-4,10,19,20-tetraazatetracyclo[13.5.2.1^2,5.0^18,21]tricosa-1(20),2,4,15,17,21-hexaen-9-one], for which the IC50 was under 10 nM.

On to `CC1CNC(=O)OCCn2cc(cn2)-c2n[nH]c3ccc(cc23)OC1` (stereo not shown) [Example 93, 12-methyl-8,14-dioxa-4,5,10,19,20-pentaazatetracyclo[13.5.2.1^2,5.0^18,21]tricosa-1(20),2(23),3,15(22),16,18(21)-hexaen-9-one], for which the concentration for half-maximal inhibition (IC50) was under 10 nM.

Regarding `O=C1NCCCOc2ccc3[nH]nc(c3c2)-c2cc(cc(N3CC[C@H](O)C3)c2)CO1` [Example 59, 4-[(3S)-3-hydroxypyrrolidin-1-yl]-8,14-dioxa-10,19,20-triazatetracyclo[13.5.2.1^2,6.0^18,21]tricosa-1(20),2,4,6(23),15,17,21-heptaen-9-one], the 50% inhibitory concentration (IC50) was under 10 nM.

Regarding `C[C@@H]1CCNC(=O)O[C@H](C)c2cc(F)cc(c2)-c2n[nH]c3ccc(cc23)O1` [Example 106, (7R,13R)-4-fluoro-7,13-dimethyl-8,14-dioxa-10,19,20-triazatetracyclo[13.5.2.1^2,6.0^18,21]tricosa-1(20),2,4,6(23),15,17,21-heptaen-9-one], the IC50 is under 10 nM.

For `O=C1NC[C@H](F)COc2ccc3[nH]nc(c3c2)-c2cnn(n2)CCO1` [Example 173, (12S)-12-fluoro-8,14-dioxa-4,5,10,19,20,23-hexaazatetracyclo[13.5.2.1^2,5.0^18,21]tricosa-1(20),2(23),3,15,17,21-hexaen-9-one], the half-maximal inhibitory concentration (IC50) is under 10 nM.

In the case of `COc1cc2cc(c1)-c1n[nH]c3ccc(cc13)OCCCNC(=O)OC2` [Example 8, 4-methoxy-8,14-dioxa-10,19,20-triazatetracyclo[13.5.2.1^2,6.0^18,21]tricosa-1(20),2,4,6(23),15,17,21-heptaen-9-one], the concentration for half-maximal inhibition (IC50) is under 10 nM.

For `CC(C)N1CCN(c2cc3cc(c2)-c2n[nH]c4ccc(cc24)OCCCNC(=O)OC3)CC1` [Example 13, 4-[4-(propan-2-yl)piperazin-1-yl]-8,14-dioxa-10,19,20-triazatetracyclo[13.5.2.1^2,6.0^18,21]tricosa-1(20),2,4,6(23),15,17,21-heptaen-9-one], the half-maximal inhibitory concentration (IC50) was under 10 nM.

On to `O=C1NCCCOc2ccc3[nH]nc(c3c2)-c2cc(Cl)cc(c2)CO1` [Example 27, 4-chloro-8,14-dioxa-10,19,20-triazatetracyclo[13.5.2.1^2,6.0^18,21]tricosa-1(20), 2,4,6(23),15,17,21-heptaen-9-one], for which the IC50 was under 10 nM.

With `Cc1ccc2cc1COC(=O)NCCCOc1ccc3[nH]nc-2c3c1` [Example 11, 5-methyl-8,14-dioxa-10,19,20-triazatetracyclo[13.5.2.1^2,6.0^18,21]tricosa-1(20),2,4,6(23),15,17,21-heptaen-9-one], the 50% inhibitory concentration (IC50) was under 10 nM.

As for `O=C1OC2CN1CCCOc1ccc3[nH]nc(c3c1)-c1cccc2c1` (stereo not shown) [Example 91, 8,14-dioxa-10,19,20-triazapentacyclo[13.5.2.1^2,6.1^7,10.0^18,21]tetracosa-1(20),2(24),3,5,15(22),16,18(21)-heptaen-9-one], the IC50 is under 10 nM.

These data come from US20230357269A1 (LES LABORATOIRES SERVIER, priority 2020, published 2023).
